*1 amine or outer side, *2 acyl side, *3 side chain or, on linkers, in order; H or OH if unused. Where a SMILES comes first, the peptide text is derived from it. Bridges are numbered along the chain shown (N, C = ends). [ ]: non-standard residue; d: D form. TATA = O=C(CC[*:1])N1CN(C(=O)CC[*:2])CN(C(=O)CC[*:3])C1; 1Nal = N[C@@H](Cc1cccc2ccccc12)C(=O)O; Phe(2-Me) = Cc1ccccc1C[C@H](N)C(=O)O; tBuAla = CC(C)(C)C[C@H](N)C(=O)O; 4Pal = N[C@@H](Cc1ccncc1)C(=O)O
Molecular target: TREM2 extracellular domain (ECD) (residues 19-131, C-terminally biotinylated, deglycosylated or glycosylated) (Homo sapiens, UniProt Q9NZC2)
Sequence (Q9NZC2 19-131): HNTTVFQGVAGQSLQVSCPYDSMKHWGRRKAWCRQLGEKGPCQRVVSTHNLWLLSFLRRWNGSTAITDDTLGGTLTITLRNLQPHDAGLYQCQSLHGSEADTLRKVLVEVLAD
Test: biochemical
[1] = Human BLI (Kd; nM) (deglycosylated), Table 4B, deglycosylated human TREM2 ECD, steady-state KD, 25° C.
[2] = Human BLI (Kd; nM) glycosylated, Table 4B, glycosylated human TREM2 ECD
[3] = Human BLI (Kd; nM) (deglycosylated), Table 4A, deglycosylated human TREM2 ECD, steady-state KD, 25° C.
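Also: Bio-layer interferometry in 50 mM HEPES pH 7.5 with 150 mM NaCl and 0.1% Tween, double-referenced with blank wells and unrelated-protein sensors, equilibrium response fitted versus concentration.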

Protocol: Bio-layer interferometry was performed on an Octet RED384® system (Sartorius) at 25° C. in a buffer containing 50 mM HEPES (pH 7.5), 150 mM NaCl and 0.1% Tween. TREM2 extracellular domain (ECD) (residues 19-131, C-terminally biotinylated, deglycosylated or glycosylated) was loaded onto Superstreptavidin biosensors (SSA, 18-5070, Sartorius) at 0.0125 mg/ml for 300 s. Bicycle peptides (10 mM in DMSO) were dispensed into 384-Well Tilted-Bottom Plates (18-5076, Sartorius) using an Echo liquid handler giving a final DMSO concentration of 0.125% in all wells including control wells. Association of defined concentrations of bicyclic peptide (0-12.5 μM, 1:2 dilutions for 7 points) was recorded over 120 s followed by dissociation in buffer over 120 s. Reference wells containing no bicycle peptides and reference sensors loaded with an unrelated protein (His-tagged MLLT3a) were subjected to the same assay protocol and double reference subtraction was used for processing to account for non-specific binding. Traces were analysed using Octet Software (Version 11.0). Association and dissociation curves were globally fit and the response at equilibrium (Req) plotted against concentration to obtain steady-state KD values.

Question: `CC(=O)N[C@H]1CSCCC(=O)N2CN3CN(C2)C(=O)CCSC[C@H](NC(=O)[C@H](Cc2ccc(O)cc2)NC(=O)[C@H](CCC(=O)O)NC(=O)[C@H](CO)NC1=O)C(=O)N[C@@H](Cc1cccc2ccccc12)C(=O)N[C@@H](Cc1c[nH]c2ccccc12)C(=O)N1CCC[C@H]1C(=O)N[C@@H](Cc1ccccc1)C(=O)N[C@@H](Cc1ccc(O)cc1)C(=O)N[C@@H](Cc1c[nH]cn1)C(=O)N[C@H](C(N)=O)CSCCC3=O` [BCY20054, Ac-(SEQ ID NO: 49)] (Ac-CSEYC[1Nal]WPFYHC-NH2; linker 1-5-12 via TATA) was tested. Which Kd [1] did it give?
Answer: The Kd was 2540 nM.

Question: What about the Kd [2] of the same compound?
Answer: The Kd was 1830 nM.

Question: For `CC(=O)N[C@H]1CSCCC(=O)N2CN3CN(C2)C(=O)CCSC[C@H](NC(=O)[C@H](Cc2ccc(O)cc2)NC(=O)[C@H](CCC(=O)O)NC(=O)[C@H](CO)NC1=O)C(=O)N[C@@H](Cc1ccccc1)C(=O)N[C@@H](Cc1c[nH]c2ccccc12)C(=O)N1CCC[C@H]1C(=O)N[C@@H](CC(C)(C)C)C(=O)N[C@@H](Cc1ccc(O)cc1)C(=O)N[C@@H](Cc1c[nH]cn1)C(=O)N[C@H](C(N)=O)CSCCC3=O` [BCY20074, Ac-(SEQ ID NO: 68)] (Ac-CSEYCFWP[tBuAla]YHC-NH2; linker 1-5-12 via TATA), which Kd [2] is on record?
Answer: Its Kd is 920 nM.

Question: Which Kd [1] does the source give for `CC(=O)N[C@H]1CSCCC(=O)N2CN3CN(C2)C(=O)CCSC[C@H](NC(=O)[C@H](Cc2ccc(O)cc2)NC(=O)[C@H](CCC(=O)O)NC(=O)[C@H](CO)NC1=O)C(=O)N[C@@H](Cc1ccccc1)C(=O)N[C@@H](Cc1c[nH]c2ccccc12)C(=O)N1CCC[C@H]1C(=O)N[C@@H](Cc1ccccc1)C(=O)N[C@@H](Cc1ccc(O)cc1)C(=O)N[C@@H](CCC(N)=O)C(=O)N[C@H](C(N)=O)CSCCC3=O` [BCY20572, Ac-(SEQ ID NO: 98)] (Ac-CSEYCFWPFYQC-NH2; linker 1-5-12 via TATA) here?
Answer: The Kd was 1060 nM.

Question: How did the Kd [1] turn out when `CC(=O)N[C@H]1CSCCC(=O)N2CN3CN(C2)C(=O)CCSC[C@H](NC(=O)[C@H](Cc2ccc(O)cc2)NC(=O)[C@H](CCC(=O)O)NC(=O)[C@H](CO)NC1=O)C(=O)N[C@@H](Cc1ccccc1)C(=O)N[C@@H](Cc1c[nH]c2ccccc12)C(=O)N1CC[C@H]1C(=O)N[C@@H](Cc1ccccc1)C(=O)N[C@@H](Cc1ccc(O)cc1)C(=O)N[C@@H](Cc1c[nH]cn1)C(=O)N[C@H](C(N)=O)CSCCC3=O` [BCY20068, Ac-(SEQ ID NO: 64)] was run?
Answer: Its Kd is 2540 nM.

Question: How did the Kd [3] turn out when `C[C@H](N)C(=O)N[C@H]1CSCCC(=O)N2CN3CN(C2)C(=O)CCSC[C@H](NC(=O)[C@H](Cc2ccc(O)cc2)NC(=O)[C@H](CCC(=O)O)NC(=O)[C@H](CO)NC1=O)C(=O)N[C@@H](Cc1ccccc1)C(=O)N[C@@H](Cc1c[nH]c2ccccc12)C(=O)N1CCC[C@H]1C(=O)N[C@@H](Cc1ccccc1)C(=O)N[C@@H](Cc1ccc(O)cc1)C(=O)N[C@@H](CO)C(=O)N[C@H](C(=O)N[C@@H](C)C(N)=O)CSCCC3=O` [BCY17669, A-(SEQ ID NO: 2)-A] (H-ACSEYCFWPFYSCA-NH2; linker 2-6-13 via TATA) was run?
Answer: The Kd was 1200 nM.

Question: How did the Kd [3] turn out when `NC(=O)[C@@H]1CSCCC(=O)N2CN3CN(C2)C(=O)CCSC[C@H](N)C(=O)N[C@@H](CO)C(=O)N[C@@H](CCC(=O)O)C(=O)N[C@@H](Cc2ccc(O)cc2)C(=O)N[C@@H](CSCCC3=O)C(=O)N[C@@H](Cc2ccccc2)C(=O)N[C@@H](Cc2c[nH]c3ccccc23)C(=O)N2CCC[C@H]2C(=O)N[C@@H](Cc2ccccc2)C(=O)N[C@@H](Cc2ccc(O)cc2)C(=O)N[C@@H](Cc2c[nH]cn2)C(=O)N1` [BCY18219, SEQ ID NO: 1] was run?
Answer: The Kd was 700 nM.

Question: How did the Kd [1] turn out when `CC(=O)N[C@H]1CSCCC(=O)N2CN3CN(C2)C(=O)CCSC[C@H](NC(=O)[C@H](Cc2ccc(O)cc2)NC(=O)[C@H](CCC(=O)O)NC(=O)[C@H](CO)NC1=O)C(=O)N[C@@H](Cc1ccccc1)C(=O)N[C@@H](Cc1c[nH]c2ccccc12)C(=O)N1CCC[C@H]1C(=O)N[C@@H](Cc1ccncc1)C(=O)N[C@@H](Cc1ccc(O)cc1)C(=O)N[C@@H](Cc1c[nH]cn1)C(=O)N[C@H](C(N)=O)CSCCC3=O` [BCY20569, Ac-(SEQ ID NO: 95)] (Ac-CSEYCFWP[4Pal]YHC-NH2; linker 1-5-12 via TATA) was run?
Answer: The Kd was 3800 nM.

Question: Which Kd [3] does the source give for `C[C@H](N)C(=O)N[C@H]1CSCCC(=O)N2CN3CN(C2)C(=O)CCSC[C@H](NC(=O)[C@H](Cc2ccc(O)cc2)NC(=O)[C@H](Cc2ccc(O)cc2)NC(=O)[C@H](CO)NC1=O)C(=O)N[C@@H](Cc1ccccc1)C(=O)N[C@@H](Cc1c[nH]c2ccccc12)C(=O)N1CCC[C@H]1C(=O)N[C@@H](Cc1ccccc1)C(=O)N[C@@H](CCC(N)=O)C(=O)N[C@@H](CO)C(=O)N[C@H](C(=O)N[C@@H](C)C(N)=O)CSCCC3=O` [BCY19766, A-(SEQ ID NO: 8)-A] (H-ACSYYCFWPFQSCA-NH2; linker 2-6-13 via TATA; C-terminus assumed) here?
Answer: The Kd was 1000 nM.

Question: `CC(=O)N[C@H]1CSCCC(=O)N2CN3CN(C2)C(=O)CCSC[C@H](NC(=O)[C@H](Cc2ccc(O)cc2)NC(=O)[C@H](CCC(=O)O)NC(=O)[C@H](CO)NC1=O)C(=O)N[C@@H](Cc1ccccc1)C(=O)N[C@@H](Cc1ccccc1C)C(=O)N1CCC[C@H]1C(=O)N[C@@H](Cc1ccccc1)C(=O)N[C@@H](Cc1ccc(O)cc1)C(=O)N[C@@H](Cc1c[nH]cn1)C(=O)N[C@H](C(N)=O)CSCCC3=O` [BCY20063, Ac-(SEQ ID NO: 61)] (Ac-CSEYCF[Phe(2-Me)]PFYHC-NH2; linker 1-5-12 via TATA) was tested. Which Kd [1] did it give?
Answer: Its Kd is 1300 nM.

Question: `CC(=O)N[C@H]1CSCCC(=O)N2CN3CN(C2)C(=O)CCSC[C@H](NC(=O)[C@H](Cc2ccc(O)cc2)NC(=O)[C@H](CCC(=O)O)NC(=O)[C@H](CO)NC1=O)C(=O)N[C@@H](Cc1ccccc1F)C(=O)N[C@@H](Cc1c[nH]c2ccccc12)C(=O)N1CCC[C@H]1C(=O)N[C@@H](Cc1ccccc1)C(=O)N[C@@H](Cc1ccc(O)cc1)C(=O)N[C@@H](Cc1c[nH]cn1)C(=O)N[C@H](C(N)=O)CSCCC3=O` [BCY20051, Ac-(SEQ ID NO: 51)] was tested. Which Kd [1] did it give?
Answer: Its Kd is 2030 nM.

Question: With `CC(C)[C@@H]1NC(=O)[C@H](C)NC(=O)[C@H](Cc2ccccc2)NC(=O)[C@@H]2CCCN2C(=O)[C@H](Cc2c[nH]c3ccccc23)NC(=O)[C@H](Cc2ccccc2)NC(=O)[C@@H]2CSCCC(=O)N3CN(CN(C3)C(=O)CCSC[C@@H](C(=O)N[C@@H](C)C(N)=O)NC1=O)C(=O)CCSC[C@H](NC(=O)[C@H](C)N)C(=O)N[C@@H]([C@@H](C)O)C(=O)N[C@@H](CC(N)=O)C(=O)N[C@@H](Cc1ccc(O)cc1)C(=O)N2` [BCY19783, A-(SEQ ID NO: 22)-A] (H-ACTNYCFWPFAVCA-NH2; linker 2-6-13 via TATA) as the compound, how does the Kd [3] read?
Answer: The Kd was 2700 nM.

Question: How did the Kd [3] turn out when `CC(=O)N[C@H]1CSCCC(=O)N2CN3CN(C2)C(=O)CCSC[C@H](NC(=O)[C@H](Cc2ccc(O)cc2)NC(=O)[C@H](CCC(=O)O)NC(=O)[C@H](CO)NC1=O)C(=O)N[C@@H](Cc1ccccc1)C(=O)N[C@@H](Cc1c[nH]c2ccccc12)C(=O)N1CCC[C@H]1C(=O)N[C@@H](Cc1ccccc1)C(=O)N[C@@H](Cc1ccc(O)cc1)C(=O)N[C@@H](Cc1c[nH]cn1)C(=O)N[C@H](C(N)=O)CSCCC3=O` [BCY18217, Ac-(SEQ ID NO: 1)] was run?
Answer: Its Kd is 900 nM.

Question: `CC(=O)N[C@H]1CSCCC(=O)N2CN3CN(C2)C(=O)CCSC[C@H](NC(=O)[C@H](Cc2ccc(O)cc2)NC(=O)[C@H](CCC(=O)O)NC(=O)[C@H](CO)NC1=O)C(=O)N[C@@H](Cc1ccccc1)C(=O)N[C@@H](Cc1c[nH]c2ccccc12)C(=O)N1CCCC[C@H]1C(=O)N[C@@H](Cc1ccccc1)C(=O)N[C@@H](Cc1ccc(O)cc1)C(=O)N[C@@H](Cc1c[nH]cn1)C(=O)N[C@H](C(N)=O)CSCCC3=O` [BCY20069, Ac-(SEQ ID NO: 62)] was tested. Which Kd [1] did it give?
Answer: Its Kd is 1460 nM.

Question: For `CC(=O)N[C@H]1CSCCC(=O)N2CN3CN(C2)C(=O)CCSC[C@H](NC(=O)[C@H](Cc2ccc(O)cc2)NC(=O)[C@H](CCC(=O)O)NC(=O)[C@H](CO)NC1=O)C(=O)N[C@@H](Cc1ccccc1)C(=O)N[C@@H](Cc1c[nH]c2cc(Cl)ccc12)C(=O)N1CCC[C@H]1C(=O)N[C@@H](Cc1ccccc1)C(=O)N[C@@H](Cc1ccc(O)cc1)C(=O)N[C@@H](Cc1c[nH]cn1)C(=O)N[C@H](C(N)=O)CSCCC3=O` [BCY19671, Ac-(SEQ ID NO: 42)], which Kd [3] is on record?
Answer: Its Kd is 1000 nM.

Source: patent publication US11904020B2, “Bicyclic peptide ligands specific for TREM2” (Bicycle Tx Limited, priority 2021, dated 2024)
